Publication PMC4640659, “Antidepressant- and Anxiolytic-Like Effects of New Dual 5-HT1A and 5-HT7 Antagonists in Animal Models” (PLoS ONE, 2015)
“Also recorded” adds a separate entry of the source. Counter-ions that a name gives are not always drawn.

How the values were obtained:
mice [1] = test: Forced swim test (FST) in mice; type: in vivo; conditions: for Effect on immobility time, given alone at sub-effective dose: i.p., fluoxetine 10, reboxetine 5, bupropion 2.5, HBK-14 1.25, HBK-15 0.625 mg/kg; for Decrease of immobility time: vs control
Procedure: The studies were carried out on mice according to the method described by Porsolt et al.. The animals were dropped individually into glass cylinders (height 25 cm, diameter 10 cm) containing 10 cm of water, maintained at 23–25°C. Mice were left in the cylinder for 6 min. […] The mouse was judged to be immobile when it remained floating passively in the water.

rats [2] = test: FST in rats; type: in vivo
Procedure: The experiment was carried out according to the method of Detke et al. [33]. On the first experimental day rats were placed individually in Plexiglas cylinders (40 cm height, 18 cm in diameter) containing 30 cm of water maintained at 25°C for 15 min. After that time the rats were placed for 30 min under a 60-W bulb to dry. 24 hours after the pre-test, the rats were placed again in the cylinders and the total duration of immobility (when a rat remained floating in the water without struggling and was making only those movements necessary to keep its head above water), swimming (when a rat was making active swimming motions, more than necessary to merely maintain its head above water, e.g. moving around in the cylinder) and climbing (when a rat was making active movements with its forepaws in and out of the water, usually directed against the walls) was recorded during the whole 5-min test period. Fresh water was used for each animal.

α1-adrenoceptor = test: Radioligand binding, [3H]-prazosin, rat cerebral cortex; conditions: read-out: Adrenergic Ki α1
levels of serotonin = system: levels of serotonin; set-up: method as in PMID 9044239; conditions: mice, 3-day treatment 200 mg/kg; cited from earlier work
mice [3] = test: Four-plate test in mice; type: in vivo
rats [4] = test: Elevated plus maze (EPM) test in rats; type: in vivo
From the text: Plus-maze apparatus (an automated device produced by Campden Instruments Ltd, UK) made of durable, high density, nonporous black plastic, elevated to a height of 50 cm, consisted of two open arms (50 cm x 10 cm) and two closed arms (50 cm x 10 cm, and 30 cm high walls), arranged so that the two arms of each type were opposite each other. Floor of the plus-maze was made of infrared transparent material what means that there are no visible sensors. The plus-maze was placed in a darkened room; only the centre of the apparatus was illuminated with low-density light (30 lux measured on the maze level). Plus-maze apparatus was connected to PC software by control chassis. Each rat was gently placed in the centre of the plus-maze, facing one of the closed arms, immediately after a 5-min adaptation period in a plastic black box (60 cm x 60 cm x 35 cm). During a 5-min test period, automated Motor Monitor System recorded the number of entries into the closed and open arms, the time spent in either type of the arms. After each trial the maze was wiped clean. Studied compounds and reference drug were administered (i.p.) 30 min before the test.

5-HT7 receptors = conditions: authors' previous studies; cited from earlier work
[5] = target: T1, Serotonin transporter (SERT) (Rattus norvegicus, UniProt P31652); test: Radioligand binding, [3H]-citalopram, rat cerebral cortex; conditions: read-out: Serotonergic Ki SERT
T1 construct: Rat cerebral cortex was homogenized; from tissue; host or cells: rat cerebral cortex
T1 sequence (P31652 whole entry): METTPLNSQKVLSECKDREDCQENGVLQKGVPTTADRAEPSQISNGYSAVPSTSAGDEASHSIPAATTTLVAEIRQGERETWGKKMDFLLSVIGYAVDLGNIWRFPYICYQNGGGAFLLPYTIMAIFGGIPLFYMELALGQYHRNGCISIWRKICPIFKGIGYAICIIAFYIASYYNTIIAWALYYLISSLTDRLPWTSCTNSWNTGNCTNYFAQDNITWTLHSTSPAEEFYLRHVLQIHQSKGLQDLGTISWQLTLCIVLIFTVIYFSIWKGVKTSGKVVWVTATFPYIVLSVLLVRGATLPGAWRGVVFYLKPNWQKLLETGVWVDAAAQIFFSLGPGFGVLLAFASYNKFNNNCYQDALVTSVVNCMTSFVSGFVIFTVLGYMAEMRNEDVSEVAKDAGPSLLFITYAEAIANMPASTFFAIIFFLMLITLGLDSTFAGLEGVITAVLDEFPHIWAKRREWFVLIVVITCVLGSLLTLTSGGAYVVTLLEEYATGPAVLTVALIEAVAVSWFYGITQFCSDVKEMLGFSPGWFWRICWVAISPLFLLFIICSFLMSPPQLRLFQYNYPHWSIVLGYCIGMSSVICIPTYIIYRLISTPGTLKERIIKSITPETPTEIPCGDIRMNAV
Procedure: The supernatant was decanted and pellet was re-suspended in 30 volumes of buffer and centrifuged again. The resulting pellet was re-suspended in the same quantity of the buffer and centrifuged third time in the same conditions. […] Ki values were calculated.

5-HT1A receptors = conditions: authors' previous studies; cited from earlier work
human 5-HT2A receptor = target: T2, human 5-HT2A receptor (Homo sapiens, UniProt P28223); test: Radioligand binding, [3H]-ketanserin, CHO-K1 cell membranes; conditions: read-out: Serotonergic Ki 5-HT2A
T2 construct: expressed in transfected cells; host or cells: CHO-K1
T2 sequence (P28223 whole entry): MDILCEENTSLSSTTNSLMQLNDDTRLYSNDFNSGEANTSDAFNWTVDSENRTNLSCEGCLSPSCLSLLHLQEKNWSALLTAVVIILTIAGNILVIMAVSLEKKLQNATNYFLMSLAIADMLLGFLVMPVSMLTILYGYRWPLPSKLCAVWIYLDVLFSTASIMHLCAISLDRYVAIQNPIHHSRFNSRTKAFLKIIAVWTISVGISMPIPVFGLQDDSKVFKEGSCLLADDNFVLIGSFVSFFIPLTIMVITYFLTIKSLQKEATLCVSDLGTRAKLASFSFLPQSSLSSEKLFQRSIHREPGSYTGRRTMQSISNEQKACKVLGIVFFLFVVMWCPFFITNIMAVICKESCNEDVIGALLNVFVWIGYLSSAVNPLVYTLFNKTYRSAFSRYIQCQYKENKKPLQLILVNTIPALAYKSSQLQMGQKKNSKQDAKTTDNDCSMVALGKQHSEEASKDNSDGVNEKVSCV
Procedure: Radioligand binding was performed using membranes from CHO-K1 cells stably transfected with the human 5-HT2A receptor. Monolayer of CHO-K1 cells with stable expression of human receptor after reaching about 90% confluence was washed twice with PBS. After that the cells were scrapped and collected to centrifuge tubes. About 20 volumes of assay buffer was added to each tube and cells were homogenized (3 x 10 sec., 24 000 rpm; Ultra Turrax T25B homogenizator, IKA Labortechnik, USA). Tubes were centrifuged (20 min., 30 000 x g, about 4°C; 3K30 centrifuge, Sigma Laborzentrifugen, Germany). Supernatant was discarded and appropriate volume of assay buffer with 10% glycerol was added and homogenization was repeated. Membrane suspension was aliquoted into cryotubes, freezed in liquid nitrogen and stored until assay in -80°C. Membrane protein concentration was determined by BCA method. Immediately before assay frozen membranes were thawed quickly (about 35°C), mixed and homogenized (60 sec., 24,000 rpm) with appropriate volume of assay buffer to reach desired membrane protein concentration. All assays were carried out in duplicates. […] Microplate was covered with a sealing tape, mixed and incubated for 60 minutes at 27°C. […] Radioactivity was counted in MicroBeta2 scintillation counter (PerkinElmer) at approximately 30% efficiency. Inhibition constants (Ki) were calculated.

5-HT6 receptors = conditions: authors' former studies; cited from earlier work
[6] = target: T3, human serotonin 5-HT7 receptor (Homo sapiens, UniProt P34969); test: cAMP functional assay (LANCE Ultra TR-FRET), CHO-K1 cells; type: cell-based; conditions: for Kb / Antagonist activity weaker than reference antagonist SB-269970 / Emax: 5-HT7; for Kb: Cheng-Prusoff equation, read-out: Antagonist mode Kb; for Antagonist activity weaker than reference antagonist SB-269970: range over HBK-14 and HBK-15; for Emax: CHO-K1, mean of two independent experiments in duplicate, read-out: Agonist mode Emax
T3 construct: host or cells: CHO-K1 (with CRE-bla reporter)
T3 sequence (P34969 whole entry): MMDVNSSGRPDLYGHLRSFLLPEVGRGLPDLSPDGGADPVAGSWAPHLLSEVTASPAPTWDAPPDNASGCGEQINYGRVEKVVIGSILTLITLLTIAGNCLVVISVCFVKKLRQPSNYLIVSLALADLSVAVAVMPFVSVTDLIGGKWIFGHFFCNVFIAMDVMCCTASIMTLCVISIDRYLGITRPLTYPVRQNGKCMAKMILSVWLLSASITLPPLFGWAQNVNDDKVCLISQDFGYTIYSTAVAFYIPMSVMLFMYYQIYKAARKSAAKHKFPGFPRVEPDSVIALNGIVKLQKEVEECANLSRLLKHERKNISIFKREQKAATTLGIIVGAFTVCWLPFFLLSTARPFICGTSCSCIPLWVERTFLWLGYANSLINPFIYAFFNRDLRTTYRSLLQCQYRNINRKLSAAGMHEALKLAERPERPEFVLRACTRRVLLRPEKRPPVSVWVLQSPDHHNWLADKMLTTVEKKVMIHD
Procedure: CHO-K1 cells were transfected with a beta lactamase (bla) reporter gene under control of the cyclic AMP response element (CRE) (Life Technologies).
Thawed cells were resuspended in stimulation buffer (HBSS, 5 mM HEPES, 0.5 IBMX, and 0.1% BSA at pH 7.4) at 2x10^5 cells/ml for 5-HT7 receptor. The same volume (10 μl) of cell suspension was added to tested compounds for 5-HT7 receptor. Samples were loaded onto a white opaque half area 96-well microplate. […] The agonist and antagonist were added simultaneously. Cell stimulation was performed for 1h at room temperature. After incubation, cAMP measurements were performed with homogeneous TR-FRET immunoassay using the LANCE Ultra cAMP kit (PerkinElmer, USA). 10 μl of EucAMP Tracer Working Solution and 10 μl of ULight-anti-cAMP Tracer Working Solution were added, mixed, and incubated for 1 h. The TR-FRET signal was read on an EnVision microplate reader (PerkinElmer, USA).

human D2 receptor = target: T4, human D2 receptor (Homo sapiens, UniProt P14416); test: Radioligand binding, [3H]-methylspiperon, CHO-K1 cell membranes; conditions: read-out: Dopaminergic Ki D2
T4 construct: expressed in transfected cells; host or cells: CHO-K1
T4 sequence (P14416 whole entry): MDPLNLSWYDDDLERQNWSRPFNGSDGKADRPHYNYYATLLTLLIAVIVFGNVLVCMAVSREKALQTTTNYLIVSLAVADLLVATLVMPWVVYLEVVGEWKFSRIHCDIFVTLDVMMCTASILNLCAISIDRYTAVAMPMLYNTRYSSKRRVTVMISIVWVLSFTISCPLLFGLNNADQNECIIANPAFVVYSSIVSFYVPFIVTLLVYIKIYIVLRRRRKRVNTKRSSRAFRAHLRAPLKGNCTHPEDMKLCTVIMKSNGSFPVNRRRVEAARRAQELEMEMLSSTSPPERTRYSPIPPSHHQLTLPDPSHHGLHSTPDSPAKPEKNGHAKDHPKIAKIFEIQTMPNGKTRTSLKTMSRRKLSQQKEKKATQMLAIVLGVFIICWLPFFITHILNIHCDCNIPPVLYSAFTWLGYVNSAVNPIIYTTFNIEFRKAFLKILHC
Procedure: Radioligand binding was performed using membranes from CHO-K1 cells stably transfected with the human D2 receptor. All assays were carried out in duplicates. […] (+)-butaclamol (10 μM) was used to define nonspecific binding. Microplate was covered with a sealing tape, mixed and incubated for 60 minutes at 37°C. The reaction was terminated by rapid filtration through GF/C filter mate pre-soaked with 0.3% polyethyleneimine for 30 minutes. Ten rapid washes with 200 μl 50 mM Tris buffer (4°C, pH 7.4) were performed using automated harvester system Harvester-96 MACH III FM (Tomtec). The filter mates were dried at 37°C in forced air fan incubator and then solid scintillator MeltiLex was melted on filter mates at 90°C for 5 minutes. Radioactivity was counted in MicroBeta2 scintillation counter (PerkinElmer) at approximately 30% efficiency. Ki values were calculated.

[7] = i.p., ANOVA over the doses tested
[8] = 5 mg/kg i.p. 30 min before test
[9] = pCPA 200 mg/kg i.p. once daily for 3 days
[10] = 2.5 mg/kg i.p. 30 min before test
[11] = 1.25 mg/kg i.p. 30 min before test
[12] = 2.5 mg/kg i.p., pCPA interaction experiment (Fig 8A, 8B)

CCOc1ccccc1OC(c1ccccc1)C1CNCCO1 (stereo not shown) [reboxetine, reference compound]
Effect on immobility time, given alone at sub-effective dose (mice [1]): did not affect

CN(C)CCCN1c2ccccc2CCc2ccccc21 [Imipramine, imipramine, reference compound]
Decrease of immobility time (rats [2]; 10 mg/kg i.p. 30 min before test): 51%
Effect on duration of swimming (rats [2]; [7]): no significant effect
Decrease of immobility time (mice [1]; [8]): 50%

CC(NC(C)(C)C)C(=O)c1cccc(Cl)c1 (stereo not shown) [bupropion, reference compound]
Effect on immobility time, given alone at sub-effective dose (mice [1]): did not affect

Cc1ccc(N(CC2=NCCN2)c2cccc(O)c2)cc1 [Phentolamine, phentolamine, reference compound]
Ki (α1-adrenoceptor): 9 nM

CNCCC(Oc1ccc(C(F)(F)F)cc1)c1ccccc1 (stereo not shown) [fluoxetine, reference compound]
Effect on immobility time, given alone at sub-effective dose (mice [1]): did not affect

N[C@@H](Cc1ccc(Cl)cc1)C(=O)O (racemic) [pCPA, p-Chlorophenylalanine, reference compound]
Reduction of the levels of serotonin in cortex (levels of serotonin): around 30%
Reduction of the levels of serotonin in diencephalon (levels of serotonin): ~35%
Reduction of the levels of serotonin in midbrain (levels of serotonin): ~24%
Reduction of the levels of serotonin in pons & medulla (levels of serotonin): ~34%
Effect on immobility, given alone (mice [1]; [9]): did not influence immobility time
Effect on the number of punished crossings, given alone (mice [3]; [9]): showed no effect; also recorded: had no effect

CN1C(=O)CN=C(c2ccccc2)c2cc(Cl)ccc21 [Diazepam, diazepam, reference compound]
Increase of the percentage of open-arm entries (rats [4]; [10]): 131%
Increase of the percentage of time spent in the open arms (rats [4]; [10]): 672%
Increase of the number of punished crossings (mice [3]; [11]): 62%
Increase of the number of punished crossings (mice [3]; [10]): 73%

COc1ccccc1N1CCN(CCOCCOc2c(C)cccc2C)CC1 [HBK-14, 1-{2-[2-(2,6-dimethlphenoxy)ethoxy]ethyl}-4-(2-methoxyphenyl)piperazynine hydrochloride]
Ki (5-HT7 receptors): 156 nM
Ki [5]: 3500 nM
Ki (5-HT1A receptors): 41 nM
Ki (human 5-HT2A receptor): 264 nM
Increase of the percentage of open-arm entries (rats [4]; [10]): 90%
Increase of the percentage of time spent in the open arms (rats [4]; [10]): 591%
Ki (5-HT6 receptors): 9970 nM
Increase of swimming behaviour (rats [2]; 5 mg/kg i.p.): 185%
Decrease of immobility time (rats [2]; [8]): 38%
Effect on duration of climbing (rats [2]; [7]): no significant effect
Ki (α1-adrenoceptor): 23 nM
IC50 [6]: 77 nM
Kb [6]: 24 nM
Antagonist activity weaker than reference antagonist SB-269970 [6]: 51-147 fold
Emax [6]: 19%
Decrease of immobility time (mice [1]; [10]): 30%
Reduction of immobility (mice [1]; 2.5 mg/kg i.p., pCPA interaction experiment (Fig 5A)): 25%
Decrease of immobility time (mice [1]; [8]): 31%
Effect on immobility time, given alone at sub-effective dose (mice [1]): none of tested compounds (HBK-14 1.25 mg/kg and HBK-15 0.625 mg/kg) administered alone affected the mouse immobility
Ki (human D2 receptor): 219 nM
Increase of the number of punished crossings (mice [3]; [10]): 68%
Increase of the number of punished crossings (mice [3]; [12]): 105%
Increase of the number of punished crossings (mice [3]; [8]): 87%

CN(C)CCC[C@@]1(c2ccc(F)cc2)OCc2cc(C#N)ccc21 [Escitalopram, escitalopram, reference compound]
Increase of swimming (rats [2]; 30 mg/kg i.p.): 171%
Decrease of immobility time (rats [2]; 30 mg/kg i.p. 30 min before test): 48%
Effect on duration of climbing (rats [2]; [7]): no influence
Decrease of immobility time (mice [1]; [10]): 42%

COc1ccccc1N1CCN(CCN(C(=O)C2CCCCC2)c2ccccn2)CC1.Cl.Cl.Cl [WAY-100635, N-{2-[4-(2-methoxyphenyl)-1-piperazinyl]ethyl}-N-(2-pyridinyl)cyclohexanecarboxamide trihydrochloride, reference compound]
Effect on duration of immobility time, given alone (mice [1]; WAY-100635 0.1 mg/kg s.c.): had no effect
Effect on the number of punished crossings, given alone (mice [3]; WAY-100635 0.1 mg/kg s.c., 0.1 mg/kg): had no effect; also recorded: showed no effect

COc1ccccc1N1CCN(CCOCCOc2c(C)cccc2Cl)CC1 [HBK-15, 2-[2-(2-chloro-6-methylphenoxy)ethoxy]ethyl-4-(2-methoxyphenyl)piperazynine dihydrochloride]
Ki (5-HT7 receptors): 34 nM
Ki [5]: 529 nM
Ki (5-HT1A receptors): < 1 nM
Ki (human 5-HT2A receptor): 109 nM
Increase of the percentage of open-arm entries (rats [4]; [8]): 89%
Increase of the percentage of time spent in the open arms (rats [4]; [8]): 198%
Ki (5-HT6 receptors): 9620 nM
Increase of swimming time (rats [2]; 1.25 mg/kg i.p.): 166%
Decrease of immobility time (rats [2]; [11]): 30%
Increase of swimming time (rats [2]; 2.5 mg/kg i.p.): 191%
Decrease of immobility time (rats [2]; [10]): 38%
Effect on duration of climbing (rats [2]; [7]): no significant influence
Ki (α1-adrenoceptor): 13 nM
IC50 [6]: 220 nM
Kb [6]: 69 nM
Antagonist activity weaker than reference antagonist SB-269970 [6]: 51-147 fold
Emax [6]: 0%
Decrease of immobility time (mice [1]; [11]): 40%
Reduction of immobility (mice [1]; 1.25 mg/kg i.p., pCPA interaction experiment (Fig 5B)): 22%
Decrease of immobility time (mice [1]; [10]): 42%
Decrease of immobility time (mice [1]; [8]): 46%
Effect on immobility time, given alone at sub-effective dose (mice [1]): none of tested compounds (HBK-14 1.25 mg/kg and HBK-15 0.625 mg/kg) administered alone affected the mouse immobility
Ki (human D2 receptor): 54 nM
Increase of the number of punished crossings (mice [3]; [10]): 52%
Increase of the number of punished crossings (mice [3]; 2.5 mg/kg i.p., WAY-100635 interaction experiment (Fig 8C, 8D), 2.5 mg/kg): 111%
Increase of the number of punished crossings (mice [3]; [12]): 109%
Increase of the number of punished crossings (mice [3]; [8]): 88%
